# Experimental data: patent US8088806B2 (Achillion Pharmaceuticals, Inc., priority 2005, dated 2012)
# Test system: HCV replicon
# Assay: Replicon based assay of HCV replication inhibition (NPT ELISA)
# Type: cell-based, Hepatitis C virus
# Settings: Hepatitis C virus, Huh-7, 72 h, Table I; Huh-7 HCV replicon-containing cells, three days; read-out: Activity
# Procedure: Compounds claimed herein are tested for the ability to inhibit viral replication of the Hepatitis C replicon in cultured cells in which the HCV replicon construct has been incorporated. The HCV replicon system was described by Bartenschlager, et. al (Science, 285, pp. 110-113 (1999)). The replicon system is predictive of in vivo anti-HCV activity; compounds that are active in humans uniformly evidence activity in the replicon assay.
# In this assay HCV replicon containing cells are treated with different concentrations of the test compound to ascertain the ability of the test compound to suppress replication of the HCV replicon. As a positive control, HCV replicon-containing cells are treated with different concentrations of interferon alpha, a known inhibitor of HCV replication. The replicon assay system includes Neomycin Phosphotransferase (NPT) as a component of the replicon itself in order to detect the transcription of replicon gene products in the host cell. Cells in which the HCV replicon is actively replicating have high levels of NPT; the level of NPT is proportional to HCV replication. […] The NPT level of each sample is measured using a captured ELISA.
# A protocol for testing compounds for the ability to inhibit viral replication of the Hepatitis C replicon cultured cells in which the replicon construct has been incorporated, follows.
# The HCV replicon contains, 5′-3′, the HCV-IRES, the neomycin phosphotransferase (neo) gene, the IRES of encephalomyocarditis virus, which directs translation of HCV sequences NS3 to NS5B, and the 3′-NTR. The sequence of the HCV replicon has been deposited in GenBank (Accession no. AJ242652).
# The replicon is transfected into Huh-7 cells using standard methods such as electroporation.
# The equipment and materials include, but are not limited to, Huh-7 HCV replicon-containing cells, maintenance media (DMEM (Dulbecco's modified Eagle media) supplemented with 10% FBS, L-glutamine, non-essential amino acids, penicillin (100 units/ml), streptomycin (100 micrograms/ml), and 500 micrograms/ml of Geneticin (G418), screening media (DMEM supplemented with 10% FBS, L-glutamine, non-essential amino acids, penicillin (100 units/ml) and streptomycin (100 micrograms/ml)), 96 well tissue culture plates (flat bottom), 96 well plates (U bottom for drug dilution), Interferon alpha for positive control, fixation reagent (such as methanol: acetone), primary antibody (rabbit anti-NPTII), secondary antibody: Eu-N1l, and enhancement solution.
# The cells are then seeded onto 96-well plates at a density of 6000-7500 cells/100 microliters/well (6-7.5×10^5 cells/10 ml/plate). The plates are then incubated at 37° C. in a 5% CO2 incubator.
# HCV replicon-containing cells are rinsed with once PBS once; 2 mls of trypsin are then added. Cells are incubated at 37° C. in a 5% CO2 incubator for 3-5 minutes. 10 mls of complete medium is added to stop the reaction. Cells are blown gently, put into a 15 ml tube, and spun at 1200 rpm for four minutes. The trypsin/medium solution is removed and 5 mls of medium (500 ml DMEM (high glucose)) from BRL catalog #12430-054; 50 mls 10% FBS, 5% Geneticin G418 (50 mg/ml, BRL catalog #10131-035), 5 ml MEM non-essential amino acids (100×BRL #11140-050) and 5 ml pen-strep (BRL # 15140-148) is added. The cells and media are mixed carefully
# Cells are plated with screening medium (500 ml DMEM (BRL #21063-029), 50 ml FBS (BRL #10082-147) and 5 ml MEM non-essential amino acid (BRL #11140-050) at 6000-7500 cells/100 μl/well of 96 well plate (6-7.5×10^5 cells/10 ml/plate). Plates are placed into 37° C. 5% CO2 incubator overnight.
# The following morning, drugs (test compounds or interferon alpha) are diluted in 96 well U bottom plates with media or DMSO/media, depending on the final concentration chosen for screening. Generally for 6 concentrations of each test compounds ranging from 10 micromolar to 0.03 micromolar are applied. […]
row,SMILES,EC50
1,"CCOC(=O)Cc1ccc(Nc2nc(-c3cccnc3)cs2)cc1 [compound 109, ethyl 2-(4-(4-(pyridin-3-yl)thiazol-2-ylamino)phenyl)acetate]",> 10000 nM
2,"COc1ccc(-c2csc(Nc3ccc4c(c3)OCO4)n2)cc1F [compound 169, N-(benzo[d][1,3]dioxol-5-yl)-4-(3-fluoro-4-methoxyphenyl)thiazol-2-amine]",> 10000 nM
3,"CCCCCCOc1ccc(Nc2nc(-c3cccnc3)cs2)cc1 [compound 90, N-(4-(hexyloxy)phenyl)-4-(pyridin-3-yl)thiazol-2-amine]",< 1000 nM

# Same assay, conditions: Hepatitis C virus, Huh-7, 72 h, Table III; Huh-7 HCV replicon-containing cells, three days; read-out: Activity
row,SMILES,EC50
1,"CCCCCCCCN(C)c1ccc(Nc2nc(-c3sc(-c4cnccn4)nc3C)cs2)cc1C(F)(F)F [compound 578, 2-(trifluoromethyl)-N^1-methyl-N^4-(4-(4-methyl-2-(pyrazin-2-yl)thiazol-5-yl)thiazol-2-yl)-N^1-octylbenzene-1,4-diamine]",1000 to 10000 nM
2,"CCCCCCCCN(C)c1ccc(Nc2nc(-c3ccc4c(c3)NC(=O)CO4)cs2)cc1C(F)(F)F [compound 572, 6-(2-(4-(N-methyl-N-octylamino)-3-(trifluoromethyl)phenylamino)thiazol-4-yl)-2H-benzo[b][1,4]oxazin-3(4H)-one]",1000 to 10000 nM
3,"CCCCCCCCOc1ccc(Nc2nc(-c3cc4ccccc4o3)cs2)cc1C(F)(F)F [compound 589, 4-(benzofuran-2-yl)-N-(3-(trifluoromethyl)-4-(octyloxy)phenyl)thiazol-2-amine]",< 1000 nM

# Same assay, conditions: Hepatitis C virus, replicon based assay of HCV replication inhibition; Table II; read-out: Activity
row,SMILES,EC50
1,"CC/C=C\CCCCOc1ccc(Nc2nc(-c3cccnc3)cs2)cc1C(F)(F)F [compound 480, N-(4-((Z)-oct-5-enyloxy)-3-(trifluoromethyl)phenyl)-4-(pyridin-3-yl)thiazol-2-amine]",< 1000 nM
2,"CCCCCCCCN(C)c1ccc(Nc2nc(Cc3ccccc3)cs2)cc1C(F)(F)F [compound 492, N^4-(4-benzylthiazol-2-yl)-2-(trifluoromethyl)-N^1-methyl-N^1-octylbenzene-1,4-diamine]",1000 to 10000 nM
3,"CCCCCCCOc1ccc(Nc2nc(-c3ccc(OCC(=O)O)cc3)c(C)s2)cc1 [compound 425, 2-(4-(2-(4-(heptyloxy)phenylamino)-5-methylthiazol-4-yl)phenoxy)acetic acid]",< 1000 nM

# Same assay, conditions: Hepatitis C virus, replicon based assay of HCV replication inhibition; Table IV; read-out: Activity
row,SMILES,EC50
1,"CCCCCCCCOc1ccc(Nc2nc(-c3cccnc3C(N)=O)cs2)cc1C(F)(F)F [compound 814, 3-(2-(3-(trifluoromethyl)-4-(octyloxy)phenylamino)thiazol-4-yl)pyridine-2-carboxamide]",1000 to 10000 nM
2,"CCOC(=O)Cc1ccc(-c2csc(Nc3ccc(OCCCCc4ccccc4)c(C(F)(F)F)c3)n2)s1 [compound 928, ethyl 2-(5-(2-(4-(4-phenylbutoxy)-3-(trifluoromethyl)phenylamino)thiazol-4-yl)thiophen-2-yl)acetate]",1000 to 10000 nM
3,"FC(F)(F)c1cc(Nc2nc(-c3cncnc3-c3ccccc3)cs2)ccc1OCC1CCCCC1 [compound 763, N-(4-(cyclohexylmethoxy)-3-(trifluoromethyl)phenyl)-4-(4-phenylpyrimidin-5-yl)thiazol-2-amine]",1000 to 10000 nM
4,"Cc1sc(Nc2ccc(OCCCc3cccnc3)c(C(F)(F)F)c2)nc1-c1cccnc1 [compound 846, N-(4-(3-(pyridin-3-yl)propoxy)-3-(trifluoromethyl)phenyl)-5-methyl-4-(pyridin-3-yl)thiazol-2-amine]",> 10000 nM
5,"Fc1ccc(CCCCOc2ccc(Nc3nc(-c4cccnc4)cs3)cc2C(F)(F)F)cc1 [compound 947, N-(4-(4-(4-fluorophenyl)butoxy)-3-(trifluoromethyl)phenyl)-4-(pyridin-3-yl)thiazol-2-amine]",< 1000 nM
6,"COc1ncc(-c2csc(Nc3ccc(OCC4CCCCC4)c(C(F)(F)F)c3)n2)c(OC)n1 [compound 767, N-(4-(cyclohexylmethoxy)-3-(trifluoromethyl)phenyl)-4-(2,4-dimethoxypyrimidin-5-yl)thiazol-2-amine]",< 1000 nM
7,"FC(F)(F)c1cc(Nc2nc(-c3cnccn3)cs2)ccc1OCCCCc1ccccc1 [compound 940, N-(4-(4-phenylbutoxy)-3-(trifluoromethyl)phenyl)-4-(pyrazin-2-yl)thiazol-2-amine]",< 1000 nM
